MIC and MBC data for 7 compounds are collected here from patent US11648248B1 (King Abdulaziz University, priority 2022, dated 2023).

Values after ≈ are worked out from the molar mass of the structure shown. Where two headings read alike, the source gives them in different places. Bounds are passed on as bounds.

Format in all cases: cell-based
The test system of assay [1] is Listeria monocytogenes ATCC-19111. Nature of the assay: MIC of active MY compounds. The following applies: ATCC19111, read-out: MIC L. monocytogenes ATCC-19111.
The test system of assay [2] is Cephalosporin-resistant Streptococcus pneumoniae ATCC-15916. Nature of the assay: MBC by plating from MIC wells. An excerpt: (§1) Based upon the initial results obtained, the active compounds were further screened against additional clinical isolates of methicillin-sensitive S. aureus (MSSA), methicillin-resistant S. aureus (MRSA), vancomycin-resistant S. aureus (VRSA), Staphylococcus epidermidis, vancomycin-resistant Enterococcus faecium (VRE), vancomycin-resistant Enterococcus faecalis (VRE) and Streptococcus pneumoniae, as presented in Table 2. Additionally, we examined whether the compounds were bacteriostatic (inhibit bacteria from growing) or bactericidal (kill bacteria) by determining the minimum bactericidal concentration (MBC). The MBC was determined by plating 5 μL from each well where no growth was present (in the MIC plates) onto tryptic soya agar plates and incubating plates at 37° C. for 24 hours. The MBC was categorized as the lowest concentration that generated a 99.9% reduction in bacterial colony-forming units (Table 3).

Assay [3] has as its system Cephalosporin-resistant Streptococcus pneumoniae ATCC-700677. The experiment in a line: MBC by plating from MIC wells.
Description: as §1

Assay [4] has as its system Listeria monocytogenes ATCC-19111. Nature of the assay: MBC by plating from MIC wells.
Description: as §1

Assay [5] deals with Methicillin-resistant Staphylococcus aureus (MRSA NRS-119). The experiment in a line: MBC by plating from MIC wells. As to conditions: read-out: MBC MRSA NRS119.
Description: as §1

Assay [6] relates to Methicillin-resistant Staphylococcus aureus (MRSA NRS-123, USA400). The experiment in a line: MBC by plating from MIC wells. As to conditions: read-out: MBC MRSA NRS123 (USA400).
Description: as §1

Assay [7] has as its system Methicillin-sensitive Staphylococcus aureus (MSSA NRS-107). Nature of the assay: MBC by plating from MIC wells. As to conditions: read-out: MBC MSSA NRS-107.
Description: as §1

In assay [8] the test system is Methicillin-sensitive Staphylococcus aureus ATCC-6538 (MSSA ATCC-6538). Nature of the assay: MBC by plating from MIC wells. The following applies: read-out: MBC MSSA ATCC-6538.
Description: as §1

Assay [9] concerns Staphylococcus epidermidis (NRS-101). Nature of the assay: MBC by plating from MIC wells.
Description: as §1

For assay [10], the system named is Vancomycin-resistant Enterococcus faecium ATCC-700221 (VRE ATCC-700221). Nature of the assay: MBC by plating from MIC wells. The following applies: read-out: MBC VRE ATCC-700221.
Description: as §1

For assay [11], the system named is Vancomycin-resistant Enterococcus fecalis ATCC-51299 (VRE ATCC-51299). The experiment in a line: MBC by plating from MIC wells. As to conditions: read-out: MBC VRE ATCC-51299.
Description: as §1

Assay [12] deals with Vancomycin-resistant Staphylococcus aureus (VRSA10). Nature of the assay: MBC by plating from MIC wells. As to conditions: read-out: MBC VRSA10.
Description: as §1

The test system of assay [13] is Vancomycin-resistant Staphylococcus aureus (VRSA12). Nature of the assay: MBC by plating from MIC wells. The following applies: read-out: MBC VRSA12.
Description: as §1

[14] abbreviates: ATCC15916, 99.9% reduction in CFU, read-out: MBC S. pneumoniae ATCC-15916.
The mark [15] stands for this setting: ATCC700677, 99.9% reduction in CFU, read-out: MBC S. pneumoniae ATCC 700677.
Where [16] appears, read: ATCC19111, 99.9% reduction in CFU, read-out: MBC L. monocytogenes ATCC-19111.
Where [17] appears, read: NRS101, 99.9% reduction in CFU, read-out: MBC S. epidermidis NRS 101.

Turning to `CC(=O)NC[C@H]1CN(c2ccc(N3CCOCC3)c(F)c2)C(=O)O1` [Linezolid, reference compound], in [1], the MIC is 0.5 µg/mL. The MBC in [2] (setting [14]) was 32 µg/mL (≈ 94.9 µM); in assay [3] (setting [15]), 16 µg/mL (≈ 47.4 µM); in [4] (setting [16]), 32 µg/mL (≈ 94.9 µM); in assay [5] (99.9% reduction in CFU) it was above 64 µg/mL; in assay [6] (99.9% reduction in CFU), 64 µg/mL (≈ 190 µM); in [7] (99.9% reduction in CFU), 16 µg/mL (≈ 47.4 µM). Also, the MBC in assay [8] (99.9% reduction in CFU) was 8 µg/mL (≈ 23.7 µM); in assay [9] (setting [17]), 8 µg/mL (≈ 23.7 µM); in [10] (99.9% reduction in CFU) it was 16 µg/mL (≈ 47.4 µM); in [11] (99.9% reduction in CFU), 16 µg/mL (≈ 47.4 µM); in [12] (99.9% reduction in CFU), above 64 µg/mL; in [13] (99.9% reduction in CFU), 16 µg/mL (≈ 47.4 µM).

`O=C(Nc1cccc(Nc2ccc(Cl)nn2)c1)Nc1ccc(Cl)c(Cl)c1` [MY14, 1-(3-((6-chloropyridazin-3-yl)amino)phenyl)-3-(3,4-dichlorophenyl)urea]: the MIC in assay [1] was determined as 8 µg/mL. For the same compound, the MBC in [2] (setting [14]) was 64 µg/mL (≈ 157 µM); in assay [3] (setting [15]), above 64 µg/mL; in assay [4] (setting [16]), above 64 µg/mL; in assay [5] (99.9% reduction in CFU), 8 µg/mL (≈ 19.6 µM); in assay [6] (99.9% reduction in CFU), 8 µg/mL (≈ 19.6 µM); in [7] (99.9% reduction in CFU), 8 µg/mL (≈ 19.6 µM). In addition, the MBC is 32 µg/mL (≈ 78.3 µM) in assay [8] (99.9% reduction in CFU); 64 µg/mL (≈ 157 µM) in [9] (setting [17]); above 64 µg/mL in assay [10] (99.9% reduction in CFU); above 64 µg/mL in assay [11] (99.9% reduction in CFU); 8 µg/mL (≈ 19.6 µM) in assay [12] (99.9% reduction in CFU); 32 µg/mL (≈ 78.3 µM) in assay [13] (99.9% reduction in CFU).

`O=C(Nc1ccc(-c2ccc(=O)[nH]n2)cc1)Nc1ccc(Cl)c(Cl)c1` [MY21, 1-(3,4-dichlorophenyl)-3-(4-(6-oxo-1,6-dihydropyridazin-3-yl)phenyl)urea]: the MIC in [1] was 0.5 µg/mL. Further, the MBC was determined as 4 µg/mL (≈ 10.7 µM) in assay [2] (setting [14]); 4 µg/mL (≈ 10.7 µM) in [3] (setting [15]); 0.5 µg/mL (≈ 1.33 µM) in [4] (setting [16]); 1 µg/mL (≈ 2.67 µM) in assay [5] (99.9% reduction in CFU); 8 µg/mL (≈ 21.3 µM) in assay [6] (99.9% reduction in CFU); 4 µg/mL (≈ 10.7 µM) in assay [7] (99.9% reduction in CFU). In addition, the MBC in [8] (99.9% reduction in CFU) was determined as 4 µg/mL (≈ 10.7 µM); in [9] (setting [17]) it was 4 µg/mL (≈ 10.7 µM); in [10] (99.9% reduction in CFU), 4 µg/mL (≈ 10.7 µM); in assay [11] (99.9% reduction in CFU), 16 µg/mL (≈ 42.6 µM); in [12] (99.9% reduction in CFU) it was 2 µg/mL (≈ 5.33 µM); in assay [13] (99.9% reduction in CFU), 8 µg/mL (≈ 21.3 µM).

For the compound `O=C(Nc1ccc(Oc2ccc(=O)[nH]n2)cc1)Nc1ccc(Cl)c(Cl)c1` [MY24, 1-(3,4-dichlorophenyl)-3-(4-((6-oxo-1,6-dihydropyridazin-3-yl)oxy)phenyl)urea], the MIC in assay [1] was 1 µg/mL. The MBC in assay [2] (setting [14]) was 64 µg/mL (≈ 164 µM); in assay [3] (setting [15]), above 64 µg/mL; in assay [4] (setting [16]) it was 64 µg/mL (≈ 164 µM); in [5] (99.9% reduction in CFU) it was 32 µg/mL (≈ 81.8 µM); in assay [6] (99.9% reduction in CFU) it was above 64 µg/mL; in assay [7] (99.9% reduction in CFU), 16 µg/mL (≈ 40.9 µM). Moreover, the MBC in assay [8] (99.9% reduction in CFU) is above 64 µg/mL; in assay [9] (setting [17]) it was 8 µg/mL (≈ 20.4 µM); in [10] (99.9% reduction in CFU) it was 16 µg/mL (≈ 40.9 µM); in assay [11] (99.9% reduction in CFU) it was above 64 µg/mL; in [12] (99.9% reduction in CFU) it was above 64 µg/mL; in [13] (99.9% reduction in CFU), above 64 µg/mL.

As for `O=C(Nc1ccc(Oc2ccc(=O)[nH]n2)cc1)Nc1ccc(Cl)c(C(F)(F)F)c1` [MY31, 1-(4-chloro-3-(trifluoromethyl)phenyl)-3-(4-((6-oxo-1,6-dihydropyridazin-3-yl)oxy)phenyl)urea], the MIC in assay [1] came out at 0.5 µg/mL. Besides, the MBC in assay [2] (setting [14]) was 4 µg/mL (≈ 9.42 µM); in assay [3] (setting [15]), 2 µg/mL (≈ 4.71 µM); in assay [4] (setting [16]) it was above 64 µg/mL; in assay [5] (99.9% reduction in CFU), 2 µg/mL (≈ 4.71 µM); in assay [6] (99.9% reduction in CFU) it was above 64 µg/mL; in assay [7] (99.9% reduction in CFU) it was 2 µg/mL (≈ 4.71 µM). The minimum bactericidal concentration (MBC) in assay [8] (99.9% reduction in CFU) was above 64 µg/mL; in assay [9] (setting [17]), 1 µg/mL (≈ 2.35 µM); in assay [10] (99.9% reduction in CFU), 4 µg/mL (≈ 9.42 µM); in assay [11] (99.9% reduction in CFU), above 64 µg/mL; in assay [12] (99.9% reduction in CFU) it was above 64 µg/mL; in [13] (99.9% reduction in CFU), above 64 µg/mL.

In the case of `CNC(=O)c1cc(Oc2ccc(NC(=O)Nc3ccc(Cl)c(C(F)(F)F)c3)cc2)ccn1` [Sorafenib, reference compound], the MIC in assay [1] came out at 4 µg/mL. The MBC in [2] (setting [14]), in assay [3] (setting [15]), in assay [4] (setting [16]), in assay [5] (99.9% reduction in CFU), in assay [6] (99.9% reduction in CFU) and in assay [7] (99.9% reduction in CFU) was above 64 µg/mL each time. Also, the MBC in assay [8] (99.9% reduction in CFU), in assay [9] (setting [17]), in assay [10] (99.9% reduction in CFU), in assay [11] (99.9% reduction in CFU), in assay [12] (99.9% reduction in CFU) and in [13] (99.9% reduction in CFU) was above 64 µg/mL in each case.

On to `CN[C@H](CC(C)C)C(=O)N[C@H]1C(=O)N[C@@H](CC(N)=O)C(=O)N[C@H]2C(=O)N[C@H]3C(=O)N[C@H](C(=O)N[C@H](C(=O)O)c4cc(O)cc(O)c4-c4cc3ccc4O)[C@H](O)c3ccc(c(Cl)c3)Oc3cc2cc(c3O[C@@H]2O[C@H](CO)[C@@H](O)[C@H](O)[C@H]2O[C@H]2C[C@](C)(N)[C@H](O)[C@H](C)O2)Oc2ccc(cc2Cl)[C@H]1O` [Vancomycin, reference compound], for which, in assay [1], the MIC came out at 1 µg/mL. Moreover, the minimum bactericidal concentration (MBC) amounted to 1 µg/mL (≈ 0.69 µM) in assay [2] (ATCC15916, read-out: MBC S. pneumoniae ATCC-15916); 2 µg/mL (≈ 1.38 µM) in assay [3] (ATCC700677, read-out: MBC S. pneumoniae ATCC 700677); 2 µg/mL (≈ 1.38 µM) in [4] (ATCC19111, read-out: MBC L. monocytogenes ATCC-19111); 1 µg/mL (≈ 0.69 µM) in assay [5]; 2 µg/mL (≈ 1.38 µM) in [6]; 2 µg/mL (≈ 1.38 µM) in assay [7]. The MBC in assay [8] is 2 µg/mL (≈ 1.38 µM); in assay [9] (NRS101, read-out: MBC S. epidermidis NRS 101), 2 µg/mL (≈ 1.38 µM); in [10], above 64 µg/mL; in [11], 64 µg/mL (≈ 44.2 µM); in [12], above 64 µg/mL; in assay [13] it was above 64 µg/mL.

As usually defined, the MIC is the smallest concentration in the dilution series that meets the test's criterion for growth inhibition. In general, MBC refers to the lowest tested concentration that kills the bacteria rather than only halting them.
